Measurements as given in patent US20210269479A1, “USE OF CY[…] FOR TREATING CANCER” (Hepion Pharmaceuticals, Inc., priority 2020, published 2021).

System: human precision cut liver slices (PCLS)
Assay: RNA-Seq of PCLS, Nonstimulation Protocol (Non-stimulated + CRV vs Non-stimulated + Vehicle)
Format: cell-based
Experimental: PCLS were obtained from 5 human donors who underwent resection of liver cancer. Replicate slices were collected from healthy margins of the resections and cultured for 4 or 6 days depending on the experimental protocol. In the Nonstimulation Protocol slices were cultured for 6 days and treated for the entire period with DMSO vehicle or 5 μM CRV431. In the Stimulation Protocol slices were rested for 1 day and then administered the cytokines, TGFβ and PDGF-BB, for 3 days to stimulate inflammation and fibrosis. DMSO vehicle, CRV431 (1 and 5 μM), Alk5i (10 μM), obeticholic acid (5 μM), elafibranor (5 μM), resmetirom (5 μM), and Aramchol (5 μM) were administered individually as drug treatments in the Stimulation Protocol concurrent with TGFβ+PDGF-BB. Culture medium treatments were replaced daily.
(d) Gene expression by RNA-Seq. RNA sequencing of the complete transcriptome (30 million reads per sample) was conducted on vehicle and 5 μM CRV431 treatment groups from 3 donors both from the Nonstimulation and Stimulation Protocols. Data were analyzed by bioinformatics software programs to identify genes that were differentially expressed between vehicle and CRV431 treatments.
For the evaluation done for (d), 12 samples corresponding to 3 different donor slides which underwent 4 different treatments were studied. the comparisons carried out in this analysis are: (1) TGFb/PDGF+CRV vs TGFb/PDGF+Vehicle (V), and (2) Non-stimulated+CRV vs Non-stimulated+Vehicle.
Heatmaps were generated by plotting significant differently expressed genes for the comparison Non-stimulated+CRV and Non-stimulated+Vehicle (p-adjust<0.05, log fold change>0.5). First, the heatmap with the samples grouped by group (FIG. 7A) is shown in order to observe the different expression pattern present within the group (blue=vehicle; red=CRV). Then, the same significant genes arweree plotted into a heatmap (FIG. 7B), but the samples are now plotted grouped by donor in order to observe the differences between donors (blue=vehicle; red=CRV).
Significant differently expressed genes that were identified in the comparison Non-stimulated+CRV and Non-stimulated+Vehicle ([…], log fold change>0.5) are provided in Table 3. The fold changes shown are relative to the treatment CRV.
Nonstimulated+CRV431 vs Nonstimulated+Vehicle were then compared by donor. As shown in the PCA, there was a strong effect of the donor. Therefore, the analysis was repeated as in the previous comparison. […] In other words, there were at least 300 copies more in the treatment CRV than in the vehicle. After doing this selection individually for each donor, a venn diagram was plotted showing the overlapping between all three donors. […] So, there are at least 300 copies less in the treated group compared to the vehicle. After doing the selection individually for each donor, a venn diagram was plotted showing the overlapping between all three donors.

[1] = Non-stimulated + CRV vs Non-stimulated + Vehicle, 5 μM
[2] = absence of TGFβ+PDGF-BB, all donors

CC[C@@H]1NC(=O)[C@H]([C@H](O)[C@H](C)CCCCCCNC(C)=O)N(C)C(=O)[C@H](C(C)C)N(C)C(=O)[C@H](CC(C)C)N(C)C(=O)[C@H](CC(C)C)N(C)C(=O)[C@@H](C)NC(=O)[C@H](C)NC(=O)[C@H](CC(C)C)N(C)C(=O)[C@H](C(C)C)NC(=O)[C@H](CC(C)C)N(C)C(=O)[C@@H](C)N(C)C1=O [CRV431]
log2FoldChange, gene AC099668.1 [1]: 1.056 | log2FoldChange, gene ACOT9 [1]: 0.543 | log2FoldChange, gene ADGRD1 [1]: −1.126 | log2FoldChange, gene AFG1L [1]: 1.327 | log2FoldChange, gene AGT [1]: −0.627 | log2FoldChange, gene AKAP10 [1]: −1.249 | log2FoldChange, gene ALPK3 [1]: −0.621 | log2FoldChange, gene AP000347.1 [1]: 1.809 | log2FoldChange, gene AP003119.3 [1]: −0.67 | log2FoldChange, gene APBA1 [1]: −1.158 | log2FoldChange, gene AREG [1]: 1.034 | log2FoldChange, gene ARVCF [1]: −0.609 | log2FoldChange, gene C4B [1]: −0.506 | log2FoldChange, gene CACUL1 [1]: −0.94 | log2FoldChange, gene CCDC149 [1]: 0.76 | log2FoldChange, gene CCNK [1]: 0.545 | log2FoldChange, gene CD5L [1]: 1.675 | log2FoldChange, gene CD180 [1]: 1.051 | log2FoldChange, gene CDH11 [1]: −0.915 | log2FoldChange, gene COL27A1 [1]: −0.545 | log2FoldChange, gene CXCL5 [1]: 0.663 | log2FoldChange, gene CXCL12 [1]: 0.623 | log2FoldChange, gene CYP3A4 [1]: −2.313 | log2FoldChange, gene CYP24A1 [1]: −1.499 | log2FoldChange, gene DAAM2 [1]: 1.498 | log2FoldChange, gene DANCR [1]: 0.693 | log2FoldChange, gene DDX60 [1]: −0.739 | log2FoldChange, gene DGKD [1]: −0.85 | log2FoldChange, gene DKK1 [1]: 1.939 | log2FoldChange, gene DNAJB9 [1]: 0.721 | log2FoldChange, gene DUS3L [1]: 0.745 | log2FoldChange, gene ESM1 [1]: −1.157 | log2FoldChange, gene FANCI [1]: −1.319 | log2FoldChange, gene FSTL1 [1]: −0.595 | log2FoldChange, gene GDPD5 [1]: −0.606 | log2FoldChange, gene GEM [1]: −0.975 | log2FoldChange, gene GMPPA [1]: 0.768 | log2FoldChange, gene GMPPB [1]: 0.715 | log2FoldChange, gene GOLGA8A [1]: −0.669 | log2FoldChange, gene GYG1 [1]: 0.94 | log2FoldChange, gene HID1 [1]: 0.716 | log2FoldChange, gene HLA-F [1]: −0.727 | log2FoldChange, gene HM13 [1]: 0.528 | log2FoldChange, gene HOOK1 [1]: −0.998 | log2FoldChange, gene IFI6 [1]: −1.273 | log2FoldChange, gene IFI44L [1]: −2.254 | log2FoldChange, gene IFIT2 [1]: −0.812 | log2FoldChange, gene ISLR [1]: −0.815 | log2FoldChange, gene KAT14 [1]: 0.874 | log2FoldChange, gene KIAA0513 [1]: −0.98 | log2FoldChange, gene KRT7 [1]: 0.563 | log2FoldChange, gene KRT81 [1]: 1.137 | log2FoldChange, gene L3MBTL1 [1]: −2.03 | log2FoldChange, gene LGALS3BP [1]: −0.556 | log2FoldChange, gene LILRB4 [1]: 0.909 | log2FoldChange, gene LILRB5 [1]: 1.075 | log2FoldChange, gene MANF [1]: 0.682 | log2FoldChange, gene MEG3 [1]: −0.682 | log2FoldChange, gene MIR194-2HG [1]: −2.973 | log2FoldChange, gene MLLT10 [1]: −1.19 | log2FoldChange, gene MPEG1 [1]: 0.584 | log2FoldChange, gene MS4A4A [1]: 0.735 | log2FoldChange, gene MT-CO1 [1]: −1.083 | log2FoldChange, gene MTCO1P12 [1]: −1.183 | log2FoldChange, gene NCOA3 [1]: −1.438 | log2FoldChange, gene NOTCH3 [1]: −0.564 | log2FoldChange, gene NREP [1]: −0.638 | log2FoldChange, gene NUCB2 [1]: 0.851 | log2FoldChange, gene NUGGC [1]: 1.136 | log2FoldChange, gene NUMA1 [1]: −0.537 | log2FoldChange, gene PALM2-AKAP2 [1]: −1.035 | log2FoldChange, gene PAN2 [1]: 0.742 | log2FoldChange, gene PDE4C [1]: −0.669 | log2FoldChange, gene PDZD2 [1]: −1.468 | log2FoldChange, gene PEG10 [1]: 1.463 | log2FoldChange, gene PFKFB3 [1]: −0.545 | log2FoldChange, gene PGM3 [1]: 0.751 | log2FoldChange, gene PLTP [1]: −0.584 | log2FoldChange, gene PLXNA2 [1]: 1.719 | log2FoldChange, gene POU2F2 [1]: 2.856 | log2FoldChange, gene R3HDM2 [1]: −0.678 | log2FoldChange, gene RAD51D [1]: 1.387 | log2FoldChange, gene RARRES2 [1]: −0.766 | log2FoldChange, gene RFX1 [1]: −1.495 | log2FoldChange, gene SCRIB [1]: 0.661 | log2FoldChange, gene SEC11C [1]: 0.844 | log2FoldChange, gene SEC24D [1]: 0.58 | log2FoldChange, gene SEC61B [1]: 0.602 | log2FoldChange, gene SELL [1]: 2.035 | log2FoldChange, gene SERPINB2 [1]: 1.255 | log2FoldChange, gene SIPA1L3 [1]: −0.652 | log2FoldChange, gene SKI [1]: −0.931 | log2FoldChange, gene SLC2A1 [1]: −0.635 | log2FoldChange, gene SLC29A1 [1]: −0.53 | log2FoldChange, gene SNHG3 [1]: 0.665 | log2FoldChange, gene SOWAHC [1]: −0.601 | log2FoldChange, gene SPCS3 [1]: 0.715 | log2FoldChange, gene SRGAP2B [1]: −0.729 | log2FoldChange, gene SSR4 [1]: 0.564 | log2FoldChange, gene STX16 [1]: 0.577 | log2FoldChange, gene SYNGAP1 [1]: −1.718 | log2FoldChange, gene SYNRG [1]: −0.74 | log2FoldChange, gene TMEM154 [1]: −1.351 | log2FoldChange, gene TNFSF14 [1]: −0.681 | log2FoldChange, gene TRPV6 [1]: 0.83 | log2FoldChange, gene TTLL3 [1]: −0.579 | log2FoldChange, gene UHRF2 [1]: −0.778 | log2FoldChange, gene UNKL [1]: −0.916 | log2FoldChange, gene WNK1 [1]: −0.698 | log2FoldChange, gene XAF1 [1]: −0.725 | fold change in RNA, DKK1 [2]: +3.8 fold | fold change in RNA, ESM1 [2]: −2.2 fold | fold change in RNA, IFI44L [2]: −4.8 fold | fold change in RNA, NCOA3 [2]: −2.7 fold | fold change in RNA, mIR-194-2 [2]: −7.9 fold
